Laboratory results from patent US10556878B2, “Thiourea compounds and their use as inhibitors of Sirt2 or Sirt5” (CORNELL UNIVERSITY, priority 2013, dated 2020).

How the values were obtained:
Sirt1 = target: T1, Sirt1 (Homo sapiens, UniProt Q96EB6); assay: sirtuin inhibition IC50, Sirt1; type: biochemical; conditions: Table 1; NI = no inhibition at 256 μM
T1 sequence (Q96EB6 1-747): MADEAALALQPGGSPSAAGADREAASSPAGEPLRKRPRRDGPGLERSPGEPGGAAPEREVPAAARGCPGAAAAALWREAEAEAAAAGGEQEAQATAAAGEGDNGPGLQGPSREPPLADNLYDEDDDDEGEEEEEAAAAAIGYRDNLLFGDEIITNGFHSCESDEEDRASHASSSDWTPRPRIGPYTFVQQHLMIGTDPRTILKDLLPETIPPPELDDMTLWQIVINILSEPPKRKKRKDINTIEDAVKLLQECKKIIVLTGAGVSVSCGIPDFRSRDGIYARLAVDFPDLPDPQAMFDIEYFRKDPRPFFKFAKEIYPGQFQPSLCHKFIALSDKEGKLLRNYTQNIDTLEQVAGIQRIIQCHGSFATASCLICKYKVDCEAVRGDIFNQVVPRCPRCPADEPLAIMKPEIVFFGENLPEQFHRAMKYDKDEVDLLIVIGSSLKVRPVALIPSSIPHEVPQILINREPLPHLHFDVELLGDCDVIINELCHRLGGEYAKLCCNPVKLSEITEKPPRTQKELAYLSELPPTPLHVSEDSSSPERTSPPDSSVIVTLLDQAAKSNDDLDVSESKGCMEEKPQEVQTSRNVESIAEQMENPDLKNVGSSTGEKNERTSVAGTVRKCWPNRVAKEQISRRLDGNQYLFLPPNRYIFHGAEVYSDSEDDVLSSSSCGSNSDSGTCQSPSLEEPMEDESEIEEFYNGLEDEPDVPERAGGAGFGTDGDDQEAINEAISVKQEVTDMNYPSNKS

Sirt2 = target: T2, Sirt2 (Homo sapiens, UniProt Q8IXJ6); assay: sirtuin inhibition IC50, Sirt2; type: biochemical
T2 sequence (Q8IXJ6 1-389): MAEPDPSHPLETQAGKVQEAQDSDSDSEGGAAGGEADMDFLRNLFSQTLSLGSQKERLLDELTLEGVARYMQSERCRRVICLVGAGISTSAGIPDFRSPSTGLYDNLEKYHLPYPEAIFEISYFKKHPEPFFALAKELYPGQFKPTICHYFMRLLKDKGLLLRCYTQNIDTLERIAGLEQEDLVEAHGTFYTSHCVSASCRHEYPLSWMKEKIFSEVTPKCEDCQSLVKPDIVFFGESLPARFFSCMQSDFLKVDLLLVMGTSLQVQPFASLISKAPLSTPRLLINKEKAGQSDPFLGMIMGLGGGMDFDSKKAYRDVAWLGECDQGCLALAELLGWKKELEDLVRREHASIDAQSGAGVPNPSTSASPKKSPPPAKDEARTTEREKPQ

Sirt3 = target: T3, Sirt3 (Homo sapiens, UniProt Q9NTG7); assay: sirtuin inhibition IC50, Sirt3; type: biochemical; conditions: Table 1; NI = no inhibition at 256 μM
T3 sequence (Q9NTG7 1-399): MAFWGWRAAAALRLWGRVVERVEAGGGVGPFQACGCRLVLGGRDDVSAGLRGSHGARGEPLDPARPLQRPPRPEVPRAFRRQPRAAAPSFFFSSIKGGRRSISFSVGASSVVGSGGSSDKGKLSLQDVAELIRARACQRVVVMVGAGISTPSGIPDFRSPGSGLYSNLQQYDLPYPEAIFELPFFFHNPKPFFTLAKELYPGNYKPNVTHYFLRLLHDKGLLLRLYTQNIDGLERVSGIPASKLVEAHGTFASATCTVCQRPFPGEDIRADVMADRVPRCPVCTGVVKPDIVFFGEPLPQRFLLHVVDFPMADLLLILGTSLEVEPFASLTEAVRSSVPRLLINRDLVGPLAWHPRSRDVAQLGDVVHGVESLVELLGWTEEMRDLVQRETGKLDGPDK

Sirt5 [1] = target: T4, Sirt5 (Homo sapiens, UniProt Q9NXA8); assay: sirtuin inhibition IC50, Sirt5-catalyzed desuccinylation; type: biochemical
T4 sequence (Q9NXA8 37-310): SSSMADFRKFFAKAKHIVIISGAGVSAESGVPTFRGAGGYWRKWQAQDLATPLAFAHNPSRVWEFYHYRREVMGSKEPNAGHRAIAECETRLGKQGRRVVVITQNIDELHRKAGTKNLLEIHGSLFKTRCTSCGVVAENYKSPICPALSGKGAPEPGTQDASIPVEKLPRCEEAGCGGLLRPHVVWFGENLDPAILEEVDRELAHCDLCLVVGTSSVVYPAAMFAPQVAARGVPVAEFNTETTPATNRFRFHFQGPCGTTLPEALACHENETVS

Sirt5 [2] = target: T4, Sirt5; assay: LC-MS analysis of reaction mixture with Sirt5 and NAD (mechanism-based inhibition); type: biochemical; conditions: LC / MS detection
Experimental: To further confirm that the thiourea compound 5 is a mechanism-based inhibitor, the reaction mixture was analyzed by liquid chromatography-mass spectrometry (LC-MS). An ion with m/z of 1028.17 (corresponding to Compound 7a or protonated Compound 7b or 7c) was detected only when Compound 5 was incubated with both Sirt5 and NAD for 15 minutes, but not in negative controls without Sirt5 or NAD. In addition to Compound 7a or protonated Compound 7b or 7c, two new ions with m/z of 356.33 (corresponding to Compound 1) and 471.42 (corresponding to Compound 10) were also observed when Compound 5 was incubated with both Sirt5 and NAD, but not in negative controls without Sirt5 or NAD. Both Compounds 1 and 10 can be derived from the regular Sirt5-catalyzed deacylation reaction of Compound 7a (herein denoted as pathway A, as discussed in A. A. Sauve, et al., Annu. Rev. Biochem., 75, 435-465, 2006) or by an alternative hydrolysis pathway of 7a that is different from the regular sirtuin-catalyzed deacylation pathway (herein denoted as pathway B). […]
The foregoing results are likely responsible for Compound 3b being a less capable inhibitor of Sirt5 compared to Compound 5. […] The decomposition of the covalent intermediate occurs mainly through the Sirt5-catalyzed deacylation pathway A as the major product detected is Compound 1 with an m/z of 356.33.
The intermediate (7a/7b/7c) is readily detected by LC. […]

MDA-MB-231 = assay: foci formation, MDA-MB-231; type: cell-based, human; conditions: tested at 10, 25, 50, 100 μM
Experimental: (§1) Each cancer cell line was assayed under the following six conditions: (1) untreated, (2) DMSO, (3) 15-2e at 10 μM, (4) 15-2e at 25 μM, (5) 15-2e at 50 μM, and (6) 15-2e at 100 μM.

MDA-MB-468 = assay: foci formation, MDA-MB-468; type: cell-based, human; conditions: tested at 10, 25, 50, 100 μM
Experimental: as §1

MCF-7 cells = assay: foci formation, MCF-7; type: cell-based, human; conditions: tested at 10, 25, 50, 100 μM
Experimental: as §1

MCF-7 = assay: inhibition of MCF-7 cancer cells, crystal violet staining after 10 days; type: cell-based, human; conditions: 25, 50, 75, 100 μM
Experimental: 15,000 cells were seeded in each well and treated with 25, 50, 75, and 100 μM YC6-18 and YC6-18e. Media with the inhibitor/DMSO was changed every three days. Cells were stained with crystal violet after growing for 10 days. The results are shown in FIG. 5A (for YC-6-18) and FIG. 5B (for YC-6-18e).

HeLa cell lines = assay: protein succinylation Western blot in HeLa cells; type: cell-based; conditions: 100 μM, 24 and 48 hours
Experimental: FIGS. 3A and 3B show the results of treatment of HeLa cell lines with 100 μM YC6-18e at time points of 24 and 48 hours, and FIG. 3C is the structure of YC6-18e. […] The results reveal that treatment with Compound YC6-18e can increase protein lysine succinylation. It was observed that the loading is lower for 48 hours but the succinylation intensity is slightly higher.

[3] = Table 1, NI = no inhibition at 256 μM

`O=C(O)CCC(=S)NCCCCC(NC(=O)OCc1ccccc1)C(=O)Nc1ccccc1` (stereo not shown) [Compound 3a, reference compound] was tested, and the IC50 (Sirt1) was greater than 256 µM, the IC50 (Sirt2; [3]) was greater than 256 µM and the IC50 (Sirt3) was greater than 256 µM. For the same compound, the IC50 (Sirt5 [1]; [3]) was greater than 500 µM and the inhibition at 500 µM (Sirt5 [1]; at 500 μM) was 20%.
`O=C(O)CCCC(=S)NCCCC[C@H](NC(=O)OCc1ccccc1)C(=O)Nc1ccccc1` [Compound 3b] was tested, and the IC50 (Sirt1) was greater than 256 µM, the IC50 (Sirt2; [3]) was greater than 256 µM and the IC50 (Sirt3) was greater than 256 µM. For the same compound, the IC50 (Sirt5 [1]; [3]) was 43 µM and the “covalent intermediate with NAD in the presence of Sirt5” value (Sirt5 [2]) was “hardly detectable by LC”.
`CCCCCCCNC(=S)NCCCCC(NC(=O)OCc1ccccc1)C(=O)Nc1ccccc1` (stereo not shown) [Compound 6] showed an IC50 (Sirt1) of 64 µM, an IC50 (Sirt2; [3]) of 0.2 µM and an IC50 (Sirt5 [1]; [3]) greater than 256 µM.
Compound `O=C(O)CCNC(=S)NCCCCC(NC(=O)OCc1ccccc1)C(=O)Nc1cccc(O)c1` (stereo not shown) [Compound I5-2] has an IC50 (Sirt5 [1]; Table 2, NI = no inhibition) of 0.89 µM.
With `CCOC(=O)CCNC(=S)NCCCCC(NC(=O)OCc1ccccc1)C(=O)Nc1cccc(O)c1` (stereo not shown) [Compound I5-2e] the IC50 (Sirt2; Table 2, NI = no inhibition) was 7.05 µM, the IC50 (Sirt5 [1]; Table 2, NI = no inhibition) was greater than 200 µM and the inhibition at 200 µM (Sirt5 [1]; Table 2, at 200 μM (footnote 3), read-out: inhibition of SIRT5 (in brackets under IC50)) was 30%. The “concentration from which foci formation is inhibited” value (MDA-MB-231) was “about 25 μM”, the “concentration from which foci formation is inhibited” value (MDA-MB-468) was “about 25 μM” and the “concentration from which foci formation is inhibited” value (MCF-7 cells) was “about 25 μM”.
Compound `O=C(O)CCNC(=S)NCCCCC(NC(=O)OCc1ccccc1)C(=O)Nc1ccc(O)cc1` (stereo not shown) [YC6-04] has an IC50 (Sirt5 [1]; Table 2, NI = no inhibition) of 3.28 µM.
In the case of `O=C(O)CCNC(=S)NCCCCC(NC(=O)OCc1ccccc1)C(=O)Nc1ccccc1O` (stereo not shown) [YC6-07], the IC50 (Sirt5 [1]; Table 2, NI = no inhibition) is reported as 1.91 µM.
`CC(C)(C)OC(=O)NC(CCCCNC(=S)NCCC(=O)O)C(=O)Nc1cccc(O)c1` (stereo not shown) [YC6-09] gave an IC50 (Sirt5 [1]; Table 2, NI = no inhibition) of 4.37 µM.
Compound `NS(=O)(=O)c1cc(C(=O)NC(CCCCNC(=S)NCCC(=O)O)C(=O)Nc2cccc(O)c2)ccc1Cl` (stereo not shown) [YC6-14] has an IC50 (Sirt5 [1]; Table 2, NI = no inhibition) of 3.05 µM.
`CC(=O)NC(CCCCNC(=S)NCCC(=O)O)C(=O)Nc1cccc(O)c1` (stereo not shown) [YC6-17] gave an IC50 (Sirt5 [1]; Table 2, NI = no inhibition) of 13.6 µM.
With `O=C(O)CCNC(=S)NCCCCC(NC(=O)OCc1ccccc1)C(=O)NC1CCSc2ccccc21` (stereo not shown) [YC6-18] the IC50 (Sirt5 [1]; Table 2, NI = no inhibition) was 0.45 µM and the “killing of MCF-7 cells” value (MCF-7) was “almost no effect”.
For `CCOC(=O)CCNC(=S)NCCCCC(NC(=O)OCc1ccccc1)C(=O)NC1CCSc2ccccc21` (stereo not shown) [YC6-18e], the IC50 (Sirt2; Table 2, NI = no inhibition) was 3.92 µM, the IC50 (Sirt5 [1]; Table 2, NI = no inhibition) was greater than 167 µM and the “succinylation level on proteins” value (HeLa cell lines) was “increased the succinylation level on proteins at 24 and 48 hours”. For the same compound, the “killing of MCF-7 cells” value (MCF-7) was “very effective in killing MCF-7 at 25 μM concentration”.
